We go through twelve compounds from ChEMBL document CHEMBL1201862, “PubChem BioAssay data set” (2004).

Some test systems named below: MCF7; OVCAR-5; SK-OV-3; DU-145; T47D; NCI-H226; EKVX; NCI-H23; SK-MEL-2; IGROV-1; COLO 205; CAKI-1; RPMI-8226; HCT-116; SF-268; Hs-578T; OVCAR-8; RXF 393; OVCAR-4; BT-549.
Holding throughout (experiment): NCI tumour cell line growth inhibition, 48 h

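Grown in 96-well plates, cells were treated for 48 hours with each compound at five concentrations. Insufficient inhibition: endpoint recorded as highest concentration tested. GI50 marks 50% less growth.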 Activity calls are given as the source filed them. Rule as the data show it: active = GI50 up to about 1.1 µM and inactive = higher.

Regarding `O=C(Nc1ccccc1C(=O)NCc1ccccc1)/C(=C/c1ccccc1O)NC(=O)c1ccccc1`, the GI50 is 5.32 µM (inactive) in the test on MCF7; > 100 µM (inactive) with OVCAR-5; 48.9 µM (inactive) with SK-OV-3; > 100 µM (inactive) in the test with DU-145; 19.5 µM (inactive) with T47D; > 100 µM (inactive) with NCI-H226. For the same compound, the GI50 was > 100 µM (inactive) in the test with EKVX; > 100 µM (inactive) with NCI-H23; > 100 µM (inactive) in the test on SK-MEL-2; 73.1 µM (inactive) with IGROV-1; > 100 µM (inactive) in the test with COLO 205; > 100 µM (inactive) in the test with CAKI-1. Besides, the GI50 in the test with RPMI-8226 is > 100 µM (inactive); in the test with HCT-116, > 100 µM (inactive); in the test with SF-268, 54.1 µM (inactive); in the test on Hs-578T it was 69 µM (inactive); with OVCAR-8, 95.1 µM (inactive); in the test on RXF 393 it was 48.9 µM (inactive).

Regarding `CCC(C)C1=C(OC(C)=O)[N+]2([O-])Oc3ccc(-c4c(OC(C)=O)c(OC(C)=O)c(-c5ccc(OC(C)=O)cc5)c(OC(C)=O)c4OC(C)=O)cc3OC2(C(C)CC)C(=O)N1OC(C)=O` (configuration not stated), the GI50 in the test with MCF7 is 19.6 µM (inactive); with OVCAR-5, 24 µM (inactive); in the test with SK-OV-3, 43 µM (inactive); in the test on DU-145, 19.3 µM (inactive); in the test on T47D, 10.9 µM (inactive); in the test with NCI-H226, 21.1 µM (inactive). For the same compound, the GI50 is 16.1 µM (inactive) in the test with EKVX; 20.6 µM (inactive) in the test with NCI-H23; 14.9 µM (inactive) in the test on SK-MEL-2; 11.5 µM (inactive) with IGROV-1; 18.8 µM (inactive) with COLO 205; 34 µM (inactive) in the test on CAKI-1. The GI50 in the test with RPMI-8226 was 10.3 µM (inactive); in the test with HCT-116, 9.62 µM (inactive); in the test with SF-268 it was 12.4 µM (inactive); in the test on OVCAR-8, 22.4 µM (inactive); with RXF 393, 29.6 µM (inactive); with OVCAR-4 it was 16.5 µM (inactive).

On to `COc1ccc(C(=O)Sc2c(-c3ccccc3)c(=O)n(-c3ccccc3)c(=S)n2-c2ccccc2)cc1`, for which the GI50 with MCF7 is > 100 µM (inactive); in the test with OVCAR-5 it was > 100 µM (inactive); in the test on SK-OV-3 it was > 100 µM (inactive); in the test on DU-145, > 100 µM (inactive); in the test with T47D, > 100 µM (inactive); in the test on NCI-H226, 5.73 µM (inactive). Besides, the GI50 is > 100 µM (inactive) in the test with EKVX; > 100 µM (inactive) with NCI-H23; 10.1 µM (inactive) with IGROV-1; 39.7 µM (inactive) with COLO 205; > 100 µM (inactive) with CAKI-1; 29.7 µM (inactive) in the test on HCT-116. The GI50 in the test with SF-268 was 67.5 µM (inactive); in the test with Hs-578T it was > 100 µM (inactive); in the test with OVCAR-8, 21.3 µM (inactive); with RXF 393, 24.1 µM (inactive); in the test with OVCAR-4, 44.4 µM (inactive).

As to `O=S1(=O)OCCOS(=O)(=O)C1(F)Cc1ccccc1`, the GI50 with OVCAR-5, in the test on SK-OV-3, in the test with DU-145, in the test with T47D, with NCI-H226 and in the test on EKVX was > 100 µM (inactive) in each case. Also, the GI50 in the test with NCI-H23, in the test with SK-MEL-2, in the test with IGROV-1, with COLO 205, in the test with CAKI-1 and with RPMI-8226 was > 100 µM (inactive) in each case. The GI50 in the test with HCT-116, with SF-268, in the test with Hs-578T, in the test with OVCAR-8, with RXF 393 and in the test with OVCAR-4 was > 100 µM (inactive) each time.

Take `O=C1CSC2=NC3=C(CSC/C3=C\c3ccc(Cl)cc3)C(c3ccc(Cl)cc3)N12` (configuration not stated): the GI50 is 19.3 µM (inactive) in the test with MCF7; 61.2 µM (inactive) in the test on OVCAR-5; 52.7 µM (inactive) in the test with SK-OV-3; 28.4 µM (inactive) with DU-145; 32.5 µM (inactive) with T47D; 27.4 µM (inactive) with EKVX. The GI50 with NCI-H23 was 19.9 µM (inactive); in the test with SK-MEL-2 it was 25.3 µM (inactive); in the test with IGROV-1, 41.9 µM (inactive); in the test with COLO 205 it was 33.1 µM (inactive); in the test on CAKI-1, 37.2 µM (inactive); in the test with RPMI-8226 it was 17.5 µM (inactive). Besides, the GI50 in the test on HCT-116 is 5.86 µM (inactive); in the test on SF-268, 41.2 µM (inactive); with OVCAR-8, 8.43 µM (inactive); in the test with OVCAR-4, 4.46 µM (inactive).

With `Clc1ccccc1C(SCc1ccccc1)SCc1ccccc1`, the GI50 with MCF7 is > 100 µM (inactive); with OVCAR-5, > 100 µM (inactive); in the test with BT-549 it was > 100 µM (inactive); with DU-145 it was > 100 µM (inactive); in the test with NCI-H226, > 100 µM (inactive); in the test with EKVX, 39.6 µM (inactive). Besides, the GI50 in the test with NCI-H23, with SK-MEL-2, in the test with IGROV-1, in the test with COLO 205, in the test with CAKI-1 and in the test on RPMI-8226 was > 100 µM (inactive) in each case. The GI50 in the test with HCT-116, with SF-268, in the test with OVCAR-8, with RXF 393 and with OVCAR-4 was > 100 µM (inactive) throughout.

As for `CC(C)c1cc2c(O)c(c1)Cc1cc(C(C)C)cc(c1O)Cc1cc(C(C)C)cc(c1O)Cc1cc(C(C)C)cc(c1O)C2`, the GI50 with OVCAR-5, with SK-OV-3, in the test with NCI-H226, with EKVX, in the test with NCI-H23 and in the test with SK-MEL-2 was > 100 µM (inactive) throughout. Besides, the GI50 with IGROV-1, in the test with COLO 205, in the test with CAKI-1, in the test with RPMI-8226, in the test on HCT-116 and in the test with SF-268 was > 100 µM (inactive) in each case. For the same compound, the GI50 in the test on OVCAR-8, in the test on RXF 393 and with OVCAR-4 was > 100 µM (inactive) each time.

With `CC1=C2C(=O)c3ccccc3C(=O)[C@H]2C[C@@H](N2CCCC2=O)O1`, the GI50 in the test with MCF7 was 12.9 µM (inactive); in the test on OVCAR-5, 19.4 µM (inactive); in the test with SK-OV-3, > 100 µM (inactive); in the test on DU-145, 26.9 µM (inactive); in the test on T47D, 22.8 µM (inactive); in the test on EKVX, 76.4 µM (inactive). Moreover, the GI50 was 21.9 µM (inactive) in the test with NCI-H23; > 100 µM (inactive) in the test on SK-MEL-2; 80.9 µM (inactive) with IGROV-1; 79.1 µM (inactive) in the test on COLO 205; 77.3 µM (inactive) in the test on CAKI-1; 21.7 µM (inactive) with RPMI-8226. The GI50 is 48.1 µM (inactive) in the test on SF-268; 94.8 µM (inactive) with Hs-578T; 50.9 µM (inactive) in the test with OVCAR-8; 23.7 µM (inactive) in the test with RXF 393; 20.2 µM (inactive) in the test on OVCAR-4.

`O=C(O)CCC(=O)c1ccc2c(c1)C(C(=O)O)CC2` (configuration not stated): the GI50 in the test with MCF7, with OVCAR-5, in the test with SK-OV-3, in the test on DU-145, in the test with T47D and in the test on NCI-H226 was > 100 µM (inactive) in each case. For the same compound, the GI50 in the test on EKVX, with NCI-H23, in the test with SK-MEL-2, in the test on IGROV-1, with COLO 205 and with RPMI-8226 was > 100 µM (inactive) in each case. The GI50 in the test on HCT-116 is 0.0935 µM (active); in the test with SF-268 it was > 100 µM (inactive); in the test on Hs-578T, > 100 µM (inactive); with OVCAR-8, 0.652 µM (active); with RXF 393 it was 0.286 µM (active); in the test on OVCAR-4, > 100 µM (inactive).

For `O=C(c1ccc2ccccc2c1)C1(I)S(=O)(=O)OCCOS1(=O)=O`, the GI50 in the test with MCF7, in the test with OVCAR-5, with BT-549, in the test with DU-145, with EKVX and with NCI-H23 was > 100 µM (inactive) each time. Further, the GI50 with SK-MEL-2, with COLO 205, with CAKI-1, in the test on RPMI-8226, in the test with HCT-116 and in the test with OVCAR-8 was > 100 µM (inactive) throughout. Further, the GI50 with OVCAR-4 was > 100 µM (inactive).

As to `NCCCC(N)(C(=O)O)C(F)F` (configuration not stated) [EFLORNITHINE], the GI50 in the test with MCF7, with SK-OV-3, in the test on NCI-H226, in the test with NCI-H23, with SK-MEL-2 and in the test with IGROV-1 was > 5000 µM (inactive) throughout. Also, the GI50 was > 5000 µM (inactive) in the test on COLO 205; 1570 µM (inactive) in the test with CAKI-1; > 5000 µM (inactive) in the test with RPMI-8226; 815 µM (inactive) in the test on HCT-116; > 5000 µM (inactive) in the test on SF-268; > 5000 µM (inactive) in the test on RXF 393. For the same compound, the GI50 in the test on OVCAR-4 was > 5000 µM (inactive).

Turning to `O=CN/C=C/c1cc(O)ccc1O` [ERBSTATIN], the GI50 in the test with MCF7 was 11.3 µM (inactive); with OVCAR-5 it was > 85.7 µM (inactive); in the test with SK-OV-3 it was > 62.4 µM (inactive); in the test with DU-145, 30.1 µM (inactive); in the test on NCI-H226 it was 44 µM (inactive); in the test with EKVX, 18.6 µM (inactive). Also, the GI50 in the test with NCI-H23 was 18.8 µM (inactive); in the test on SK-MEL-2, 29.3 µM (inactive); in the test with IGROV-1, 26.2 µM (inactive); in the test with COLO 205 it was 11.9 µM (inactive); with CAKI-1, 12.4 µM (inactive); in the test with RPMI-8226, 26.3 µM (inactive). Besides, the GI50 in the test with HCT-116 was 15.7 µM (inactive); in the test with SF-268, 17.2 µM (inactive); in the test on OVCAR-8 it was 17.8 µM (inactive); in the test on RXF 393 it was 13 µM (inactive); in the test on OVCAR-4, 17.8 µM (inactive).
